Measured values published in patent US3956312A, “Indazole-3-carboxylic acid hydrazides and a process for the preparation thereof” (Egyt Gyogyszervegyeszeti Gyar, priority 1973, dated 1976).
Structures can show the parent of a compound that is named as a salt. Where two headings read alike, the source gives them in different places.

Experiments:
gastric acid secretion [1] = assay: inhibition of gastric acid secretion, Shay's method; assay type: in vivo, Wistar rats; conditions: 5 hours
Procedure: The animals were operated according to Shay's method, and the substance to be tested was administered intraperitoneally. After 5 hours the animals were sacrified, and the volume of gastric juice, the amount of free hydrochloric acid, and the total acidity were determined.

small intestines = assay: spasmolytic effect in vivo, carbon suspension method of Stickney; conditions: Mus musculus, ip; white mice, intraperitoneal, Litchfield-Wilcoxon
Procedure: (§1) The spasmolytic effect was tested under in vivo conditions on white mice, by the carbon suspension method of Stickney. The active agents were administered intraperitoneally, and the total length of the small intestines as well as the length of the intestines filled with carbon were measured. […] The ED50 values were calculated according to the LitchfieldWilcoxon method from the thus-transformed values. In order to evaluate the safety margin of the active agents, the acute LD50 values were also determined on white mice in intraperitoneal administration. The observation periods in the toxicity tests were 48 hours, and the calculation was performed according to the LitchfieldWilcoxon method, also taking into consideration the perished animals.

[2] = as above; conditions: mouse, in vivo, ip; Table 1, spasmolytic effect, white mice, intraperitoneal; read-out: Therapeutical index LD50/ED50
Procedure: as §1

[3] = acute toxicity (LD50), intraperitoneal, 48 hours observation; conditions: mouse, in vivo, ip, read-out: Toxicity LD5
Procedure: as §1

gastric acid secretion [4] = assay: inhibition of gastric acid secretion, Shay's method; assay type: in vivo, Wistar rats; conditions: 5 hours; remark: listed apart in the source
[5] = toxicity on mice p.o. (Table 2); conditions: mouse, in vivo, po
Reserpine-ulcer = assay: antiulcer activity, Reserpine-ulcer; assay type: in vivo, rats; conditions: related to the controls averages
Procedure: (§2) The antiulcer activity of 5,6-dimethoxyindazole-3-carboxylic acid-benzylhydrazide was determined on rats.

[6] = toxicity LD50 listed with the antidepressant activity (Table 4); conditions: mouse, in vivo
tetrabenazine ptosis = assay: antidepressant activity, inhibition of tetrabenazine ptosis; assay type: in vivo, mice; conditions: for ED50: Mus musculus, mice, oral, tetrabenazine ptosis
Procedure: (§3) The antidepressant activity was examined on mice, after oral administration. Tetrabenazine was administered to the animals in a dosage provoking maximum ptosis, and the inhibiting activity of the tested compounds was measured.

[7] = as above; assay type: in vivo, mice; conditions: mouse, in vivo; Table 4, antidepressant activity, mice, oral; read-out: Therapeutical index
Procedure: as §3

Shay ulcer = assay: antiulcer activity, Shay ulcer; assay type: in vivo, rats; conditions: related to the controls averages
Procedure: as §2
**Shay ulcer (Shay, H., Komarov, S.A., Fels, S.S., Meranze, D.,
Gruenstein, M., Siplet, H.: Gastroenterology 5, 45 /1945/)

[8] = white mice, intraperitoneal, 48 hours observation

Structure (SMILES): CCN(CC)CCOC(=O)C(c1ccccc1)c1ccccc1.Cl [Adiphenine, 2-diethylaminoethyl-diphenylacetate hydrochloride, reference compound]
- Percentage inhibition of free HCl (gastric acid secretion [1]; 100 mg./kg. intraperitoneal): 0%
- Percentage inhibition of gastric juice (gastric acid secretion [1]; 100 mg./kg. intraperitoneal): 36%
- Percentage inhibition of total acidity (gastric acid secretion [1]; 100 mg./kg. intraperitoneal): 0%

Structure (SMILES): COc1cc2[nH]nc(C(=O)NNC(C)C)c2cc1OC [Compound 7]
- ED50 (small intestines): 36 mg/kg
- selectivity ratio [2]: 20
- Percentage inhibition of free HCl (gastric acid secretion [1]; 100 mg./kg. intraperitoneal): 85%
- Percentage inhibition of gastric juice (gastric acid secretion [1]; 100 mg./kg. intraperitoneal): 80%
- Percentage inhibition of total acidity (gastric acid secretion [1]; 100 mg./kg. intraperitoneal): 67%
- LD50 at 48 h [3, 8]: 720 mg/kg

Structure (SMILES): COc1cc2[nH]nc(C(=O)NNC3CCCCCC3)c2cc1OC [Compound 28, 5,6-dimethoxyindazole-3-carboxylic acid-cycloheptylhydrazide]
- ED50 (small intestines): 280 mg/kg
- selectivity ratio [2]: 4.3
- Percentage inhibition of free HCl (gastric acid secretion [1]; 50 mg./kg. intraperitoneal): 47%
- Percentage inhibition of free HCl (gastric acid secretion [1]; 100 mg./kg. intraperitoneal): 63%
- Percentage inhibition of gastric juice (gastric acid secretion [1]; 100 mg./kg. intraperitoneal): 47%
- Percentage inhibition of total acidity (gastric acid secretion [1]; 100 mg./kg. intraperitoneal): 36%
- Percentage inhibition of gastric juice (gastric acid secretion [4]; 50 mg./kg. intraperitoneal): 46%
- Percentage inhibition of total acidity (gastric acid secretion [4]; 50 mg./kg. intraperitoneal): 38%
- LD50 at 48 h [3, 8]: 1200 mg/kg

Structure (SMILES): COc1cc2[nH]nc(C(=O)NNCc3ccccc3)c2cc1OC [Compound 30, 5,6-dimethoxyindazole-3-carboxylic acid-benzylhydrazide]
- Percentage inhibition of free HCl (gastric acid secretion [1]; 25 mg./kg. i.p.): 33%
- Percentage inhibition of total acidity (gastric acid secretion [1]; 25 mg./kg. i.p.): 20%
- Percentage inhibition of free HCl (gastric acid secretion [1]; 100 mg./kg. intraperitoneal): 74%
- Percentage inhibition of gastric juice (gastric acid secretion [1]; 100 mg./kg. intraperitoneal): 48%
- Percentage inhibition of total acidity (gastric acid secretion [1]; 100 mg./kg. intraperitoneal): 56%
- Percentage inhibition of gastric juice (gastric acid secretion [4]; 25 mg./kg. i.p.): 13%
- Percentage inhibition of free HCl (gastric acid secretion [4]; 50 mg./kg. p.o.): 50%
- Percentage inhibition of gastric juice (gastric acid secretion [4]; 50 mg./kg. p.o.): 36%
- Percentage inhibition of total acidity (gastric acid secretion [4]; 50 mg./kg. p.o.): 39%
- Percentage inhibition of free HCl (gastric acid secretion [4]; 100 mg./kg. p.o.): 76%
- Percentage inhibition of gastric juice (gastric acid secretion [4]; 100 mg./kg. p.o.): 48%
- Percentage inhibition of total acidity (gastric acid secretion [4]; 100 mg./kg. p.o.): 63%
- Percentage inhibition of free HCl (gastric acid secretion [4]; 200 mg./kg. i.p.): 72%
- Percentage inhibition of gastric juice (gastric acid secretion [4]; 200 mg./kg. i.p.): 63%
- Percentage inhibition of total acidity (gastric acid secretion [4]; 200 mg./kg. i.p.): 64%
- LD50 [5]: 2000 mg/kg
- Percentage inhibition according to the occurrence of ulcer (Reserpine-ulcer; 10 mg./kg.): 0%
- Percentage inhibition according to the ulcer index (Reserpine-ulcer; 10 mg./kg.): 14%
- Percentage inhibition according to ulcer diameters 2-5 mm. (Reserpine-ulcer; 10 mg./kg.): 14%
- Percentage inhibition according to ulcer diameters 5-10 mm. (Reserpine-ulcer; 10 mg./kg.): 0%
- Percentage inhibition according to ulcer diameters <2 mm. (Reserpine-ulcer; 10 mg./kg.): 22%
- Percentage inhibition according to ulcer diameters >10 mm. (Reserpine-ulcer; 10 mg./kg.): 0%
- Percentage inhibition according to the occurrence of ulcer (Reserpine-ulcer; 25 mg./kg.): 70%
- Percentage inhibition according to the ulcer index (Reserpine-ulcer; 25 mg./kg.): 81%
- Percentage inhibition according to ulcer diameters 2-5 mm. (Reserpine-ulcer; 25 mg./kg.): 100%
- Percentage inhibition according to ulcer diameters 5-10 mm. (Reserpine-ulcer; 25 mg./kg.): 100%
- Percentage inhibition according to ulcer diameters <2 mm. (Reserpine-ulcer; 25 mg./kg.): 93%
- Percentage inhibition according to ulcer diameters >10 mm. (Reserpine-ulcer; 25 mg./kg.): 100%
- Percentage inhibition according to the occurrence of ulcer (Reserpine-ulcer; 50 mg./kg.): 90%
- Percentage inhibition according to the ulcer index (Reserpine-ulcer; 50 mg./kg.): 97%
- Percentage inhibition according to ulcer diameters 2-5 mm. (Reserpine-ulcer; 50 mg./kg.): 100%
- Percentage inhibition according to ulcer diameters 5-10 mm. (Reserpine-ulcer; 50 mg./kg.): 100%
- Percentage inhibition according to ulcer diameters <2 mm. (Reserpine-ulcer; 50 mg./kg.): 98%
- Percentage inhibition according to ulcer diameters >10 mm. (Reserpine-ulcer; 50 mg./kg.): 100%
- LD50 ([6]; Table 4): 2000 mg/kg
- ED50 (tetrabenazine ptosis): 140 mg/kg
- selectivity ratio [7]: 14.3
- Percentage inhibition according to the occurrence of ulcer (Shay ulcer; 100 mg./kg.): 12%
- Percentage inhibition according to the ulcer index (Shay ulcer; 100 mg./kg.): 33%
- Percentage inhibition according to ulcer diameters 2-5 mm. (Shay ulcer; 100 mg./kg.): 42%
- Percentage inhibition according to ulcer diameters 5-10 mm. (Shay ulcer; 100 mg./kg.): 71%
- Percentage inhibition according to ulcer diameters <2 mm. (Shay ulcer; 100 mg./kg.): 0%
- Percentage inhibition according to ulcer diameters >10 mm. (Shay ulcer; 100 mg./kg.): 62%
- Percentage inhibition according to the occurrence of ulcer (Shay ulcer; 200 mg./kg.): 22%
- Percentage inhibition according to the ulcer index (Shay ulcer; 200 mg./kg.): 53%
- Percentage inhibition according to ulcer diameters 2-5 mm. (Shay ulcer; 200 mg./kg.): 85%
- Percentage inhibition according to ulcer diameters 5-10 mm. (Shay ulcer; 200 mg./kg.): 67%
- Percentage inhibition according to ulcer diameters <2 mm. (Shay ulcer; 200 mg./kg.): 86%
- Percentage inhibition according to ulcer diameters >10 mm. (Shay ulcer; 200 mg./kg.): 100%

Structure (SMILES): COc1cc2[nH]nc(C(=O)NNCc3ccccc3O)c2cc1OC [Compound 32, 5,6-dimethoxyindazole-3-carboxylic acid-2'-hydroxybenzylhydrazide]
- ED50 (small intestines): 25 mg/kg
- selectivity ratio [2]: 120
- LD50 at 48 h [3]: > 3000 mg/kg
- LD50 [6]: > 3000 mg/kg
- ED50 (tetrabenazine ptosis): 22 mg/kg
- therapeutical width (tetrabenazine ptosis; compared with amitryptiline): significantly exceeds that of the well known agent, amitryptiline
- selectivity ratio [7]: 136

Structure (SMILES): COc1cc2[nH]nc(C(=O)NNC(C)c3ccc([N+](=O)[O-])cc3)c2cc1OC (centres unmarked) [Compound 35, 5,6-dimethoxyindazole-3-carboxylic acid-1'-(4"-nitrophenyl)-ethylhydrazide]
- ED50 (small intestines): 2.5 mg/kg
- selectivity ratio [2]: 2000
- LD50 at 48 h [3]: 5000 mg/kg
- LD50 [6]: > 5000 mg/kg
- ED50 (tetrabenazine ptosis): 280 mg/kg
- selectivity ratio [7]: 17.9

Structure (SMILES): COc1ccc(CC(C)NNC(=O)c2n[nH]c3cc(OC)c(OC)cc23)cc1OC (centres unmarked) [Compound 37, 5,6-dimethoxyindazole-3-carboxylic acid-2'-(3'-/3",4"-dimethoxyphenyl/)-propylhydrazide]
- ED50 (small intestines): 8.7 mg/kg
- selectivity ratio [2]: 310
- LD50 at 48 h [3, 8]: 2700 mg/kg

Structure (SMILES): CCCN(CCC)C(=O)C(CCC(=O)O)NC(=O)c1ccccc1 (centres unmarked) [Xylamide, reference compound]
- Percentage inhibition of free HCl (gastric acid secretion [4]; 500 mg./kg. intraperitoneal): 89%
- Percentage inhibition of gastric juice (gastric acid secretion [4]; 500 mg./kg. intraperitoneal): 81%
- Percentage inhibition of total acidity (gastric acid secretion [4]; 500 mg./kg. intraperitoneal): 80%

Structure (SMILES): CN(C)CCC=C1c2ccccc2CCc2ccccc21 [amitryptiline, 5-(3-dimethylamino-propylidene)-10,11-dihydro-5H-dibenzo(a,d)cycloheptan hydrochloride, reference compound]
- LD50 ([6]; Table 4): 225 mg/kg
- ED50 (tetrabenazine ptosis): 13 mg/kg
- selectivity ratio [7]: 17.3

Structure (SMILES): COc1ccc(Cc2nccc3cc(OC)c(OC)cc23)cc1OC [papaverine, reference compound]
- ED50 (small intestines): 46 mg/kg
- selectivity ratio [2]: 2.9
- LD50 at 48 h [3, 8]: 132 mg/kg
